Experimental data from patent US20080206374A1 (priority 2003, published 2008).

How the values were obtained:
Platelet Aggregation = experiment: platelet aggregation of rabbits (Born Turbidimetry); format: in vivo; conditions: 45 mg/kg i.v. once per day for 3 days
Description: Before administration, the artery in ears was punctured and the blood was taken to measure the platelet aggregation rate. According to the level of platelet aggregation and the body weight, the 48 rabbits were randomly divided into 6 groups (8 rabbits per group):
The administration groups were administered medicaments intravenously through ear edges with the said dosages, and the Control group was injected with equivalent volume of 0.9% sodium chloride, once per day for continuously 3 days. After the final medicaments administration, the artery in ears was punctured, the blood sample was taken and the platelet aggregation rate was measured.
The artery in ears was punctured with a siliconized injector to take blood sample, which was anticoagulated with the citron sodium solution (blood:anticoagulant=9:1). The blood sample solution was centrifuged at 200×g for 8 minutes, and the supernatant, that is, the Platelet Rich Plasma (PRP) was taken. The rest of the solution was centrifuged at 2200×g for 10 minutes, and the top clear part, that is, the Platelet Poor Plasma (PPP) was taken. The count of Platelets in PRP was about 4.0×10^5/mm^3. According to the Born Turbidimetry, the turbidity tube with 200 μl PRP and a small magnetic stick was placed in the platelet aggregation instrument and kept at 37° C. for one minute. After PPP being standardized, an inducer was added with stirring to induce the aggregation. The end concentration of the inducer is: 47.6 μM/L (ADP), 782.0 μM/L (M), and […] (Collagen). The influence of the medicaments upon the Platelet Aggregation was analyzed according to the aggregation curves and maximal aggregation rate printed by the instrument. The calculating formula for maximal aggregation rate was as follows:
aggregation=Transmittance after PRP Aggregation−Transmittance before PRP Aggregation×100% rate Transmittance of PPP−Transmittance before PRP Aggregation

thrombosis in vitro = thrombosis in vitro of rats (Chandler method); format: in vivo; conditions: 90 mg/kg i.v., once per day for 3 days
Description: (§1) All the animal groups were intravenously injected the medicaments through caudal vein with the said dose of 4 ml/kg, once per day for continuously 3 days. 30 minutes after the final injection, animals were anaesthetized with pentobarbital sodium (30.0 mg/kg). 2 ml blood was then drawn from the abdominal aorta for the measurement of the thrombosis in vitro and 3 ml blood (heparinized) was drawn for the measurement of blood viscosity.
Measurement of the thrombuses in vitro: According to Chandler method in vitro, the blood was immediately filled and sealed in a rotating ring with the volume less than ½ ring (1.8 ml). It was placed on a thrombosis Instrument and rotated for 10 minutes (with experimental temperature of 37° C.). Then the thrombus was spilled out and washed with physiological saline. The length was measured and the wet quality was weighed. The thrombus bar was placed in an 80° C. oven for 3 hours. It was weighed after the weight getting stable.

blood viscosity of rats = format: in vivo; conditions: 90 mg/kg i.v., once per day for 3 days
Description: as §1
Measurement of the blood viscosity: 0.8 ml blood was taken from the 3 ml blood sample (heparinized) to measure the whole blood viscosity. The rest of the sample was centrifuged at 650×g for 10 minutes. 0.8 ml supernatant was taken to measure the blood plasma viscosity.

Sarcoma S180 lines = conditions: cyclophosphamide alone
Description: Kunming Hybrid mice with weight of 18-22 g were inoculated with Sarcoma S180 lines.
The experimental medicament and animals of this experiment were the same as that of Experimental Example 2.

SMILES	Aggregation Rate After administration (Platelet Aggregation; Inducer AA) [%]	Aggregation Rate Value Difference (after − before) (Platelet Aggregation; Inducer AA) [%]	Aggregation Rate After administration (Platelet Aggregation; Inducer ADP) [%]	Aggregation Rate Value Difference (after − before) (Platelet Aggregation; Inducer ADP) [%]	Aggregation Rate After administration (Platelet Aggregation; Inducer Collagen) [%]	Aggregation Rate Value Difference (after − before) (Platelet Aggregation; Inducer Collagen) [%]	Thrombus Dry weight (thrombosis in vitro) [mg]	Thrombus Length (thrombosis in vitro) [mm]	Thrombus Wet weight (thrombosis in vitro) [mg]	Blood viscosity (100 S^−1) (blood viscosity of rats)	Whole blood viscosity, High shearing (200 S^−1) (blood viscosity of rats) [CP]	Whole blood viscosity, Low shearing (5 S^−1) (blood viscosity of rats) [CP]	Whole blood viscosity, Middle shearing (30 S^−1) (blood viscosity of rats) [CP]	Whole blood viscosity, Middle shearing (100 S^−1) (blood viscosity of rats) [CP]	tumor body (M ± SD) (Sarcoma S180 lines) [volume %]	Rate of Inhibiting tumors (Sarcoma S180 lines; compared with the Blank Control group) [%Δ]
CC(=O)Oc1ccccc1C(=O)O.NCCCCC(N)C(=O)O (racemic) [Aspirin-DL-Lysine]	0.24 ± 0.69	−63.65 ± 7.05	57.78 ± 6.01	8.85 ± 6.37	45.29 ± 5.72	−21.19 ± 4.24	18.9 ± 1.4	18.8 ± 1.5	100.1 ± 12.5	2.38 ± 1.12	3.37 ± 0.58	6.35 ± 1.03	4.71 ± 0.95	3.81 ± 0.91	–	–
O=P1(N(CCCl)CCCl)NCCCO1 (stereo not shown) [cyclophosphamide]	–	–	–	–	–	–	–	–	–	–	–	–	–	–	0.89 ± 0.55	65
